Measured values published in ChEMBL document CHEMBL1201862, “PubChem BioAssay data set” (2004).
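Where inhibition never reached the appropriate level, the endpoint shown equals the highest concentration tested. Otherwise, values were interpolated linearly from a five-concentration, 48-hour dose response in 96-well plates. GI50: concentration for 50% inhibition of growth.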 Calls of active or inactive are those of the source. Rule as the data show it: active = GI50 up to about 1.1 µM and inactive = higher.

Tests used:
Experiment in all cases: NCI tumour cell line growth inhibition, 48 h
HL-60 = test system: HL-60
MCF7 = test system: MCF7
SN12C = test system: SN12C
A549 = test system: A549
PC-3 = test system: PC-3
UO-31 = test system: UO-31
HT-29 = test system: HT-29
DU-145 = test system: DU-145
OVCAR-8 = test system: OVCAR-8
SK-MEL-28 = test system: SK-MEL-28
OVCAR-3 = test system: OVCAR-3
LOX IMVI = test system: LOX IMVI
SF-268 = test system: SF-268
SNB-19 = test system: SNB-19
CAKI-1 = test system: CAKI-1
NCI-H460 = test system: NCI-H460
UACC-62 = test system: UACC-62
MDA-MB-231 = test system: MDA-MB-231
Malme-3M = test system: Malme-3M
SNB-75 = test system: SNB-75

Measured: GI50

Cc1[nH]n(-c2nc(-c3ccccc3)cc(=O)[nH]2)c(=O)c1CCO
inactive: HL-60 > 100 µM | MCF7 > 100 µM | SN12C > 100 µM | A549 > 100 µM | PC-3 > 100 µM | UO-31 > 100 µM | HT-29 > 100 µM | DU-145 > 100 µM | OVCAR-8 > 100 µM | SK-MEL-28 > 100 µM | OVCAR-3 > 100 µM | LOX IMVI > 100 µM | SF-268 > 100 µM | SNB-19 > 100 µM | CAKI-1 > 100 µM | NCI-H460 > 100 µM | UACC-62 > 100 µM | MDA-MB-231 > 100 µM | Malme-3M > 100 µM

CCCCCCCC/C=C1\CCC(CN2CCOCC2)C1=O (stereo not given)
inactive: HL-60 3.11 µM | MCF7 1.94 µM | SN12C 5.7 µM | A549 15 µM | PC-3 11.2 µM | UO-31 8.36 µM | HT-29 6.98 µM | DU-145 5.3 µM | OVCAR-8 3.83 µM | SK-MEL-28 9.35 µM | OVCAR-3 7.5 µM | LOX IMVI 3.43 µM | SF-268 9.35 µM | SNB-19 11.2 µM | CAKI-1 8.87 µM | NCI-H460 16.5 µM | SNB-75 2.61 µM | UACC-62 5.35 µM | MDA-MB-231 2.23 µM | Malme-3M 10.5 µM

O=S(=O)(Nc1nc2ccccc2nc1Nc1ccc2ccccc2c1)c1ccccc1
inactive: HL-60 5.77 µM | MCF7 10.9 µM | SN12C 10.4 µM | A549 5.96 µM | PC-3 3.3 µM | UO-31 3.61 µM | HT-29 11 µM | DU-145 20.3 µM | OVCAR-8 14.4 µM | SK-MEL-28 12.1 µM | OVCAR-3 1.87 µM | LOX IMVI 17.8 µM | SF-268 17.9 µM | SNB-19 9.42 µM | CAKI-1 27.4 µM | NCI-H460 7.53 µM | SNB-75 26.5 µM | UACC-62 4.67 µM | MDA-MB-231 26.4 µM | Malme-3M 4.53 µM

CO/C(=N\N=C\c1cccc(Cl)c1)c1ccncc1
inactive: HL-60 > 10 µM | MCF7 > 10 µM | SN12C > 10 µM | A549 > 10 µM | PC-3 > 10 µM | UO-31 > 10 µM | HT-29 > 10 µM | DU-145 > 10 µM | OVCAR-8 > 10 µM | OVCAR-3 > 10 µM | LOX IMVI > 10 µM | SF-268 > 10 µM | SNB-19 > 10 µM | CAKI-1 > 10 µM | NCI-H460 > 10 µM | MDA-MB-231 > 10 µM | Malme-3M > 10 µM

Cn1ncc(NCCn2cnc3c2c(=O)n(C)c(=O)n3C)c(Cl)c1=O
inactive: HL-60 > 100 µM | MCF7 > 100 µM | SN12C > 100 µM | A549 > 100 µM | PC-3 > 100 µM | UO-31 > 100 µM | HT-29 > 100 µM | DU-145 > 100 µM | OVCAR-8 > 100 µM | SK-MEL-28 > 100 µM | OVCAR-3 > 100 µM | LOX IMVI > 100 µM | SF-268 > 100 µM | SNB-19 > 100 µM | CAKI-1 > 100 µM | NCI-H460 > 100 µM | UACC-62 > 100 µM | MDA-MB-231 > 100 µM | Malme-3M > 100 µM

O=C(O)CO[C@@]12C#C/C=C\C#C[C@@H]3N(C(=O)Oc4ccccc4)c4ccccc4[C@]14O[C@@]34CCC2
inactive: HL-60 26.5 µM | MCF7 14.6 µM | SN12C 30.5 µM | A549 > 100 µM | PC-3 26.2 µM | UO-31 24.1 µM | HT-29 45.4 µM | DU-145 43.3 µM | OVCAR-8 44.6 µM | SK-MEL-28 52.8 µM | OVCAR-3 47.1 µM | LOX IMVI 40.5 µM | SF-268 14.3 µM | SNB-19 37 µM | CAKI-1 38.7 µM | NCI-H460 36.4 µM | UACC-62 11.5 µM | MDA-MB-231 12.9 µM

Cc1cc(Cl)ccc1NC(=O)/C(CC(=O)CC(c1ccccc1)c1c(O)c2ccccc2oc1=O)=N\O (stereo not given)
inactive: HL-60 > 100 µM | MCF7 > 100 µM | SN12C > 100 µM | A549 > 100 µM | PC-3 > 100 µM | UO-31 65 µM | HT-29 > 100 µM | DU-145 > 100 µM | OVCAR-8 > 100 µM | SK-MEL-28 > 100 µM | OVCAR-3 > 100 µM | LOX IMVI > 100 µM | SF-268 > 100 µM | SNB-19 > 100 µM | CAKI-1 > 100 µM | NCI-H460 > 100 µM | SNB-75 > 100 µM | UACC-62 > 100 µM | MDA-MB-231 > 100 µM

O=C1CC(C(O)CO)CC(=O)N1 (stereo not given)
inactive: HL-60 > 100 µM | MCF7 > 100 µM | SN12C > 100 µM | A549 > 100 µM | PC-3 > 100 µM | UO-31 > 100 µM | HT-29 > 100 µM | DU-145 > 100 µM | OVCAR-8 > 100 µM | SK-MEL-28 > 100 µM | OVCAR-3 > 100 µM | LOX IMVI > 100 µM | SF-268 > 100 µM | SNB-19 > 100 µM | CAKI-1 > 100 µM | NCI-H460 > 100 µM | MDA-MB-231 > 100 µM | Malme-3M > 100 µM

CCC1OC2(C)CC(C#N)(C#N)C1(C#N)C(=N)O2 (stereo not given)
inactive: HL-60 > 100 µM | MCF7 > 100 µM | SN12C > 100 µM | A549 > 100 µM | PC-3 > 100 µM | UO-31 > 100 µM | DU-145 > 100 µM | SK-MEL-28 > 100 µM | OVCAR-3 > 100 µM | LOX IMVI > 100 µM | SF-268 > 100 µM | SNB-19 > 100 µM | CAKI-1 > 100 µM | SNB-75 > 100 µM | UACC-62 > 100 µM | MDA-MB-231 > 100 µM | Malme-3M > 100 µM

O=C1ON=C2C3CC4CC12CC1(C3)C(=O)ON=C41
inactive: HL-60 > 100 µM | MCF7 > 100 µM | SN12C > 100 µM | A549 > 100 µM | PC-3 > 100 µM | UO-31 > 100 µM | HT-29 > 100 µM | DU-145 > 100 µM | OVCAR-8 > 100 µM | SK-MEL-28 > 100 µM | OVCAR-3 > 100 µM | LOX IMVI > 100 µM | SNB-19 > 100 µM | CAKI-1 > 100 µM | NCI-H460 > 100 µM | SNB-75 > 100 µM | UACC-62 > 100 µM | MDA-MB-231 > 100 µM | Malme-3M > 100 µM

Cc1ccc(SCN2CCCCC2)cc1.O=C(Cl)c1ccc([N+](=O)[O-])cc1
inactive: HL-60 1.67 µM | MCF7 6.55 µM | SN12C 4.31 µM | A549 21.2 µM | PC-3 12.2 µM | UO-31 15.2 µM | HT-29 13.2 µM | DU-145 13.7 µM | OVCAR-8 25.9 µM | SK-MEL-28 13.4 µM | OVCAR-3 12.9 µM | LOX IMVI 2.97 µM | SF-268 5.98 µM | SNB-19 19.2 µM | CAKI-1 8.87 µM | SNB-75 9.42 µM | UACC-62 13.7 µM | MDA-MB-231 13.2 µM | Malme-3M 13.1 µM
